From the CheMixHub ionic liquid set

Assay: xn = mol fraction of the nth substance listed

CCCCCCCCCCCC[N+](C)(C)Cc1ccccc1.[Cl-] + NCC(=O)O + O
electrical conductivity [S/m], 101 kPa
Settings | 293.15 K | 298.15 K | 303.15 K | 308.15 K
x2 = 0.0008873, x1 = 0.0002851 | 0.0824 | 0.0924 | 0.103 | 0.116
x2 = 0.0008873, x1 = 0.0003053 | 0.0856 | 0.0961 | 0.107 | 0.12
x2 = 0.0008873, x1 = 0.0003201 | 0.0879 | 0.0988 | 0.11 | 0.124
x2 = 0.0008874, x1 = 0.0001939 | 0.0676 | 0.0753 | 0.0835 | 0.0926
x2 = 0.0008874, x1 = 0.0002197 | 0.072 | 0.0803 | 0.0893 | 0.0992
x2 = 0.0008874, x1 = 0.0002434 | 0.0759 | 0.0848 | 0.0944 | 0.105
x2 = 0.0008874, x1 = 0.0002654 | 0.0793 | 0.0888 | 0.099 | 0.11
x2 = 0.0008875, x1 = 5.836e-05 | 0.0233 | 0.0261 | 0.0289 | 0.0319
x2 = 0.0008875, x1 = 8.059e-05 | 0.0317 | 0.0355 | 0.0393 | 0.0433
x2 = 0.0008875, x1 = 0.0001014 | 0.0394 | 0.0441 | 0.0489 | 0.0538
x2 = 0.0008875, x1 = 0.0001212 | 0.0469 | 0.0524 | 0.0581 | 0.0639
x2 = 0.0008875, x1 = 0.0001444 | 0.0552 | 0.0617 | 0.0682 | 0.0751
x2 = 0.0008875, x1 = 0.0001686 | 0.0624 | 0.0695 | 0.077 | 0.085
x2 = 0.001759, x1 = 5.744e-05 | 0.0233 | 0.026 | 0.0289 | 0.0319
x2 = 0.001759, x1 = 7.9e-05 | 0.0314 | 0.0351 | 0.039 | 0.0429
x2 = 0.001759, x1 = 9.947e-05 | 0.0391 | 0.0437 | 0.0485 | 0.0534
x2 = 0.001759, x1 = 0.0001207 | 0.0469 | 0.0525 | 0.0582 | 0.064
x2 = 0.001759, x1 = 0.0001453 | 0.0558 | 0.0624 | 0.069 | 0.0758
x2 = 0.001759, x1 = 0.0001712 | 0.0628 | 0.0701 | 0.0775 | 0.0856
x2 = 0.001759, x1 = 0.0001971 | 0.0678 | 0.0758 | 0.0841 | 0.0931
x2 = 0.001759, x1 = 0.0002216 | 0.072 | 0.0806 | 0.0896 | 0.0995
x2 = 0.001759, x1 = 0.0002442 | 0.0758 | 0.0849 | 0.0946 | 0.105
x2 = 0.001759, x1 = 0.000265 | 0.079 | 0.0888 | 0.099 | –
x2 = 0.001759, x1 = 0.000284 | 0.0821 | 0.0923 | 0.103 | –
x2 = 0.001759, x1 = 0.0003018 | 0.0849 | 0.0956 | 0.107 | –
x2 = 0.001759, x1 = 0.0003141 | 0.087 | 0.098 | 0.11 | –

CCCC[N+](CCCC)(CCCC)CCCC.[Cl-] + NCCCO
viscosity [mPa·s], 101.3 kPa
Settings | 293.15 K | 298.15 K | 303.15 K | 308.15 K | 313.15 K | 318.15 K | 323.15 K | 328.15 K | 333.15 K
x2 = 0.8 | 101.4 | 77.4 | 57.8 | 44.6 | 36.2 | 28.9 | 23.4 | 19.4 | 16.1
x2 = 0.8571 | 70.7 | 53.9 | 41.7 | 32.8 | 26 | 21.1 | 17.3 | 14.2 | 12
x2 = 0.8889 | 60.2 | 46.1 | 35.7 | 28 | 22.5 | 18.3 | 15 | 12.5 | 10.7

CC[n+]1ccn(C)c1.[Cl-] + NCCNCCN + OCCO
viscosity [mPa·s], 100 kPa
Settings | 293 K | 303 K | 313 K | 323 K | 333 K | 343 K | 353 K
x2 = 0.25, x3 = 0.25 | 64.8 | 43.2 | 29.5 | 20.6 | 14.7 | 10.7 | 8
x2 = 0.333, x3 = 0.333 | 144 | 91.9 | 60.4 | 40.8 | 28.2 | 19.9 | 14.3
x2 = 0.4, x3 = 0.2 | 106 | 68.1 | 44.7 | 30.2 | 20.9 | 14.7 | 10.6
x2 = 0.429, x3 = 0.143 | 103 | 66.5 | 44.2 | 30.1 | 21 | 15 | 10.9
x2 = 0.5, x3 = 0.25 | 124 | 80.8 | 53.9 | 36.9 | 25.8 | 18.5 | 13.4

CCCC[N+](CCCC)(CCCC)CCCC.[Cl-] + N[C@@H](CO)C(=O)O
101 kPa
Settings | electrical conductivity, 313.15 K [S/m] | electrical conductivity, 323.15 K [S/m] | electrical conductivity, 333.15 K [S/m] | electrical conductivity, 343.15 K [S/m] | electrical conductivity, 353.15 K [S/m] | viscosity, 313.15 K [mPa·s] | viscosity, 323.15 K [mPa·s] | viscosity, 333.15 K [mPa·s] | viscosity, 343.15 K [mPa·s] | viscosity, 353.15 K [mPa·s]
x2 = 0.09091 | 0.024 | 0.035 | 0.06 | 0.09 | 0.13 | 1110 | 490 | 260 | 141 | 86
x2 = 0.1 | 0.0298 | 0.0451 | 0.0631 | 0.093 | 0.136 | 1220 | 600 | 297 | 158 | 97
x2 = 0.1111 | 0.0102 | 0.0181 | 0.0425 | 0.0933 | 0.136 | 1000 | 480 | 237 | 135 | 83
